The subject of one assay is Gal8 and Gal9. Kind of assay: Galectin puncta formation by high-content microscopy in HeLa cells. It counts as cell-based. The settings on record: HeLa cells overexpressing GFP-Gal8 or GFP-Gal9, 100 μM, 1 h full medium. The procedure:
(§1) (A) Analysis of the puncta formation of galectins in response to GPN. HeLa cells overexpressing YFP-fused with the indicated galectins were treated with 100 μM GPN or without (Ctrl) in full medium for 1 h and galectin puncta were quantified by HC. […] White masks, algorithm defined cell boundaries (primary objects); green masks, computer-identified galectins puncta (target objects). Data, means±SEM, n≥3 independent experiments (500 primary objects counted per well; ≥5 wells/sample per each experiment); *p<0.05, **p<0.01, † p≥0.05, ANOVA. (B) Immunoprecipitation analysis of the interactions between galectins and mTOR or RagA GTPase. HEK293T cells overexpressing FLAG-tagged galectins were subjected to anti-FLAG immunoprecipitation followed by immunoblotting for endogenous mTOR or RagA. (C) Immunoprecipitation analysis of interactions between Gal8 and mTOR protein complexes in response to GPN treatment. […] Biotinylated proteins from HEK293T cell expressing APEX2-vector or APEX2-Gal8, after GPN and biotin phenol (BP) treatment were affinity-enriched by binding to streptavidin-beads, and samples were analyzed by immunoblotting analysis for endogenous RagA, p14, mTOR or Raptor. […]
(A) HC analysis of the puncta of galectins in response to chloroquine, Bafilomycin A1 and GPN. HeLa cells overexpressing GFP-Gal8 or GFP-Gal9 were treated with 100 μM chloroquine (CQ), […] (BAF) or 100 μM GPN in full medium for 1 h, and the puncta of GFP-Gal8 or GFP-Gal9 were quantified by HC. […] Data, means±SEM, n≥3 independent experiments (500 primary objects counted per well; ≥5 wells/sample per each experiment), † p≥0.05, **p<0.01, ANOVA. […] HeLa cells expressing GFP-Gal8 were treated with 100 μM GPN in full medium for 1 h, and the overlap between GFP-Gal8 and LAMP2 were quantified by HC. […] Data, means±SEM, n≥3 independent experiments (500 primary objects counted per well; ≥5 wells/sample per each experiment), **p<0.01, ANOVA. […]

Another assay deals with mTOR and RagA. Kind of assay: Co-IP of FLAG-tagged galectins with endogenous mTOR or RagA in HEK293T cells. The format is binding. To be noted: HEK293T overexpressing FLAG-tagged galectins. The procedure:
as §1, with “treatment. THP-1 cells not treated or treated with 100 μM GPN in full medium for 1 h were subjected to immunoprecipitation with anti-Gal8 antibody, followed by immunoblotting for endogenous RagA, p14, mTOR or Raptor.” for “treatment.”

Peptide text beside a SMILES is read from it.

As for `NCC(=O)N[C@@H](Cc1ccccc1)C(=O)Nc1ccc2ccccc2c1` [GPN, glycyl-L-phenylalanine 2-naphththylamide] (HELM PEPTIDE1{G.F.[c1ccc2cc(N[*:1])ccc2c1]}$$$$V2.0), the “Gal8 and Gal9 puncta formation” value in the assay on Gal8 and Gal9 is listed as “formed puncta”.
On to “Gal8: protein of the galectin family encoded by the gene LGALS8; beta-galactoside-binding lectin”, for which, in the assay on mTOR and RagA, the “co-IP with mTOR and RagA” value is “found in co-IPs”.

The record behind these values is US20210069295A1, “GALECTINS CONTROL MTOR IN RESPONSE TO ENDOMEMBRANE DAMAGE AND PROVIDE A MECHANISM AND TARGET FOR THE TREATMENT OF AUTOPHAGY-RELATED DISEASES” (STC. UNM, priority 2017, published 2021).
